# Assay results reported in patent US20250313533A1, “QUINOLINE CARBOXYLIC ACID ESTER COMPOUND AND PREPARATION METHOD AND USE THEREOF” (priority 2019, published 2025).
# Columns and labels:
# [1] = tested on: pathogenic bacteria causing bacterial angular leaf spot in cucumbers; test: In vitro bactericidal activity, bacterial angular leaf spot in cucumbers; type: cell-based, pseudomonas; settings: read-out: inhibitory rate; for inhibition at 1 ppm: dosage 1 ppm; for inhibition at 5 ppm: dosage 5 ppm
# [2] = tested on: pathogenic bacteria causing bacterial wilt in tobacco; test: whole plant or invertebrate; type: cell-based, ralstonia; settings: read-out: inhibitory rate
# [3] = tested on: pathogenic bacteria causing black shank in potatoes; test: In vitro bactericidal activity, black shank in potatoes; type: cell-based; settings: read-out: inhibitory rate; for inhibition at 1 ppm: dosage 1 ppm; for inhibition at 5 ppm: dosage 5 ppm
# [4] = tested on: pathogenic bacteria causing stem rot in sweet potatoes; test: In vitro bactericidal activity, stem rot in sweet potatoes; type: cell-based, dikia; settings: read-out: inhibitory rate; for inhibition at 1 ppm: dosage 1 ppm; for inhibition at 5 ppm: dosage 5 ppm
# [5] = tested on: pathogenic bacteria causing bacterial blight in rice; test: whole plant or invertebrate; type: cell-based, xanthomonas; settings: read-out: inhibitory rate
# [6] = tested on: pathogenic bacteria causing fruit blotch in watermelons; test: In vitro bactericidal activity, fruit blotch in watermelons; type: cell-based, acidovorax; settings: read-out: inhibitory rate; for inhibition at 1 ppm: dosage 1 ppm; for inhibition at 5 ppm: dosage 5 ppm
# [7] = tested on: pathogenic bacteria causing black rot in Chinese cabbages; test: In vitro bactericidal activity, black rot in Chinese cabbages; type: cell-based, xanthomonas; settings: Xanthomonas, read-out: inhibitory rate; for inhibition at 1 ppm: dosage 1 ppm; for inhibition at 5 ppm: dosage 5 ppm
# [8] = tested on: pathogenic bacteria causing bacterial wilt in cassava; test: organism not typed; type: cell-based; settings: read-out: inhibitory rate
# [9] = tested on: pathogenic bacteria causing fire blight in pears; test: In vitro bactericidal activity, fire blight in pears; type: cell-based, erwinia; settings: Erwinia, read-out: inhibitory rate; for inhibition at 1 ppm: dosage 1 ppm; for inhibition at 5 ppm: dosage 5 ppm
# [10] = tested on: black shank in potatoes; test: Living crops in vivo protective activity, potatoes (root irrigation); settings: Solanum tuberosum, read-out: efficacy against black shank in potatoes; for pest or weed control at 5 ppm: dosage 5 ppm; for pest or weed control at 10 ppm: dosage 10 ppm
# Protocol: Root irrigation was carried out on the potatoes for tests according to the designed concentration of the agents. The dosage for each plant was 200 mL and was kept consistent (also for the control). The black shank bacteria were inoculated on the second day after the application. The results were investigated according to the disease condition.
# [11] = tested on: indoor potted cucumber seedlings; test: Effect of improving growth and development of crops; type: in vivo; parameters: Rate of growth rate increase (%): concentration or dose not given beside the values; settings: versus blank control; for Rate of chlorophyll content increase (%) / Rate of leaf area increase (%): 14 days after application; for Rate of growth rate increase (%): plant height 14 days after application; for Rate of leaf area increase (%): second leaf
# Protocol: Taking indoor potted cucumber seedlings as an example, the influence of the compound disclosed herein on growth rate of plant height, chlorophyll content, leaf area, etc. of crops was mainly evaluated.
# The plant heights of plants before application and 14 days after the application were measured.
# The growth rates were calculated according to formula (1)
# The rates of the growth rate increase (%) were calculated according to formula (2)
# The longitudinal and transverse diameters (i.e., leaf length and leaf width, respectively, wherein the leaf length is the distance from the base to the tip of a leaf, and leaf width is the measured value of the upper shoulder width of the leaf) of the second leaf of plants before application and 14 days after the application were measured.
# The leaf areas were calculated according to formula (3)
# The leaf area increases were calculated according to formula (4)
# The rates of the leaf area increases were calculated according to formula (5)
# The chlorophyll contents of leaves were measured by using a chlorophyll measuring instrument (model: SPAD-520 Plus).
# The chlorophyll content increases were calculated according to formula (6)
# The rates of the chlorophyll content increases were calculated according to formula (7)
# [12] = tested on: cucumber seedlings; test: Safety for plant growth after application; type: in vivo; settings: dosage 200 ppm
# Outline: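 Indoor potted cucumber seedlings were treated with the compounds, and crop safety was judged from effects on plant height growth rate, chlorophyll content and leaf area.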
# [13] = tested on: bacterial wilt in tobacco; test: whole plant or invertebrate; settings: Nicotiana tabacum, read-out: efficacy against bacterial wilt in tobacco
# [14] = tested on: stem rot in sweet potatoes; test: whole plant or invertebrate; settings: read-out: efficacy against stem rot in sweet potatoes
# [15] = tested on: bacterial blight in rice; test: whole plant or invertebrate; settings: Oryza sativa, read-out: efficacy against bacterial blight in rice
# [16] = tested on: fruit blotch in watermelons; test: whole plant or invertebrate; settings: read-out: efficacy against fruit blotch in watermelons
# [17] = tested on: soft rot in Chinese cabbages; test: whole plant or invertebrate; settings: 48 h, read-out: efficacy against soft rot in Chinese cabbages
Compound,inhibition at 1 ppm [1] [%],inhibition at 5 ppm [1] [%],inhibition at 1 ppm [2] [%],inhibition at 5 ppm [2] [%],inhibition at 1 ppm [3] [%],inhibition at 5 ppm [3] [%],inhibition at 1 ppm [4] [%],inhibition at 5 ppm [4] [%],inhibition at 1 ppm [5] [%],inhibition at 5 ppm [5] [%],inhibition at 1 ppm [6] [%],inhibition at 5 ppm [6] [%],inhibition at 1 ppm [7] [%],inhibition at 5 ppm [7] [%],inhibition at 1 ppm [8] [%],inhibition at 5 ppm [8] [%],inhibition at 1 ppm [9] [%],inhibition at 5 ppm [9] [%],pest or weed control at 5 ppm [10] [%],pest or weed control at 10 ppm [10] [%],other results
"COCCCOC(=O)c1cn(C2CC2)c2cc(Cl)c(F)cc2c1=O [Compound 165, 3-methoxypropyl 7-chloro-1-cyclopropyl-6-fluoro-4-oxo-1,4-dihydroquinoline-3-carboxylate]",≥ 90,≥ 90,≥ 90,≥ 90,≥ 90,≥ 90,≥ 90,≥ 90,≥ 90,≥ 90,≥ 90,≥ 90,≥ 90,≥ 90,≥ 90,≥ 90,≥ 90,≥ 90,≥ 90,≥ 90,"Rate of chlorophyll content increase (%) [11]: 16%; Rate of growth rate increase (%) [11]: 12%; Rate of leaf area increase (%) [11]: 17%; safety for plant growth (discoloration, necrosis, wilt, malformation) [12]: safe for plant growth; pest or weed control at 5 ppm [13]: ≥ 90%; pest or weed control at 10 ppm [13]: ≥ 90%; pest or weed control at 5 ppm [14]: ≥ 90%; pest or weed control at 10 ppm [14]: ≥ 90%; pest or weed control at 5 ppm [15]: ≥ 90%; pest or weed control at 10 ppm [15]: ≥ 90%; pest or weed control at 5 ppm [16]: ≥ 90%; pest or weed control at 10 ppm [16]: ≥ 90%; pest or weed control at 5 ppm [17]: ≥ 90%; pest or weed control at 10 ppm [17]: ≥ 90%"
"COCCOC(=O)c1cn(C2CC2)c2cc(N3CCOCC3)c(F)cc2c1=O [Compound 426, 2-methoxyethyl 1-cyclopropyl-6-fluoro-7-morpholinyl-4-oxo-1,4-dihydroquinoline-3-carboxylate]",≥ 90,≥ 90,≥ 90,≥ 90,≥ 90,≥ 90,≥ 90,≥ 90,≥ 90,≥ 90,≥ 90,≥ 90,≥ 90,≥ 90,≥ 90,≥ 90,≥ 90,≥ 90,≥ 90,≥ 90,"Rate of chlorophyll content increase (%) [11]: 10%; Rate of growth rate increase (%) [11]: 9%; Rate of leaf area increase (%) [11]: 11%; safety for plant growth (discoloration, necrosis, wilt, malformation) [12]: safe for plant growth; pest or weed control at 5 ppm [13]: ≥ 90%; pest or weed control at 10 ppm [13]: ≥ 90%; pest or weed control at 5 ppm [14]: ≥ 90%; pest or weed control at 10 ppm [14]: ≥ 90%; pest or weed control at 5 ppm [15]: ≥ 90%; pest or weed control at 10 ppm [15]: ≥ 90%; pest or weed control at 5 ppm [16]: ≥ 90%; pest or weed control at 10 ppm [16]: ≥ 90%; pest or weed control at 5 ppm [17]: ≥ 90%; pest or weed control at 10 ppm [17]: ≥ 90%"
O=C(OCCCO)c1cn(C2CC2)c2cc(F)ccc2c1=O [Compound 207],≥ 90,≥ 90,≥ 90,≥ 90,≥ 90,≥ 90,≥ 90,≥ 90,≥ 90,≥ 90,≥ 90,≥ 90,≥ 90,≥ 90,≥ 90,≥ 90,≥ 90,≥ 90,≥ 90,≥ 90,"Rate of chlorophyll content increase (%) [11]: 13%; Rate of growth rate increase (%) [11]: 6%; Rate of leaf area increase (%) [11]: 10%; safety for plant growth (discoloration, necrosis, wilt, malformation) [12]: safe for plant growth; pest or weed control at 5 ppm [13]: ≥ 90%; pest or weed control at 10 ppm [13]: ≥ 90%; pest or weed control at 5 ppm [14]: ≥ 90%; pest or weed control at 10 ppm [14]: ≥ 90%; pest or weed control at 5 ppm [15]: ≥ 90%; pest or weed control at 10 ppm [15]: ≥ 90%; pest or weed control at 5 ppm [16]: ≥ 90%; pest or weed control at 10 ppm [16]: ≥ 90%; pest or weed control at 5 ppm [17]: ≥ 90%; pest or weed control at 10 ppm [17]: ≥ 90%"
O=C(OCCO)c1cn(C2CC2)c2cc(N3CCOCC3)c(F)cc2c1=O [Compound 425],≥ 90,≥ 90,≥ 90,≥ 90,≥ 90,≥ 90,≥ 90,≥ 90,≥ 90,≥ 90,≥ 90,≥ 90,≥ 90,≥ 90,≥ 90,≥ 90,≥ 90,≥ 90,≥ 90,≥ 90,"Rate of chlorophyll content increase (%) [11]: 13%; Rate of growth rate increase (%) [11]: 10%; Rate of leaf area increase (%) [11]: 11%; safety for plant growth (discoloration, necrosis, wilt, malformation) [12]: safe for plant growth; pest or weed control at 5 ppm [13]: ≥ 90%; pest or weed control at 10 ppm [13]: ≥ 90%; pest or weed control at 5 ppm [14]: ≥ 90%; pest or weed control at 10 ppm [14]: ≥ 90%; pest or weed control at 5 ppm [15]: ≥ 90%; pest or weed control at 10 ppm [15]: ≥ 90%; pest or weed control at 5 ppm [16]: ≥ 90%; pest or weed control at 10 ppm [16]: ≥ 90%; pest or weed control at 5 ppm [17]: ≥ 90%; pest or weed control at 10 ppm [17]: ≥ 90%"
O=C(OCCO)c1cn(C2CC2)c2cc(N3CCCCC3)c(F)cc2c1=O [Compound 431],≥ 90,≥ 90,≥ 90,≥ 90,≥ 90,≥ 90,≥ 90,≥ 90,≥ 90,≥ 90,≥ 90,≥ 90,≥ 90,≥ 90,≥ 90,≥ 90,≥ 90,≥ 90,≥ 90,≥ 90,"Rate of chlorophyll content increase (%) [11]: 15%; Rate of growth rate increase (%) [11]: 12%; Rate of leaf area increase (%) [11]: 11%; safety for plant growth (discoloration, necrosis, wilt, malformation) [12]: safe for plant growth; pest or weed control at 5 ppm [13]: ≥ 90%; pest or weed control at 10 ppm [13]: ≥ 90%; pest or weed control at 5 ppm [14]: ≥ 90%; pest or weed control at 10 ppm [14]: ≥ 90%; pest or weed control at 5 ppm [15]: ≥ 90%; pest or weed control at 10 ppm [15]: ≥ 90%; pest or weed control at 5 ppm [16]: ≥ 90%; pest or weed control at 10 ppm [16]: ≥ 90%; pest or weed control at 5 ppm [17]: ≥ 90%; pest or weed control at 10 ppm [17]: ≥ 90%"
